# Measurements published in US9394295B2, “Antibacterial homopiperidinyl substituted 3,4-dihydro-1H-[1,8]naphthyridinones” (Janssen Sciences Ireland UC, priority 2011, dated 2016).
# Like-named read-outs stand apart in the source and are kept apart here.
# Key:
# [1] = biological target: T1, S. aureus ATCC 29213 FabI (Staphylococcus aureus, UniProt Q6GI75); experiment: Staphylococcus aureus FabI enzyme inhibition assay; type: biochemical; settings: 30 minutes at room temperature, NADH consumption
# T1 sequence (Q6GI75 1-256): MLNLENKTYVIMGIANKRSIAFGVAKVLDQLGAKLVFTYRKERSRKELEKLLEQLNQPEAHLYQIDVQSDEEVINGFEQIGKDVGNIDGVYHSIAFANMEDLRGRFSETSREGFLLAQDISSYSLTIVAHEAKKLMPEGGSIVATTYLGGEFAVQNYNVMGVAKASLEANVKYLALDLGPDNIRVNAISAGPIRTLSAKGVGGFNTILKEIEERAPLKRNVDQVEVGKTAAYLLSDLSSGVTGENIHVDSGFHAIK
# Method: FabI enzyme inhibition assays were carried out in half-area, 384-well microtitre plates. Compounds were evaluated in 40-μl assay mixtures containing 100 mM NaADA, pH 6.5 (ADA=N-[2-acetamido]-2iminodiacetic acid), 250 μM crotonoyl-CoA, 625 μM NADH and 50 μg/ml S. aureus ATCC 29213 FabI Inhibitors were typically varied over the range of 50 to 0.39 μM. The reaction mixtures were incubated for 30 minutes at room temperature and the reaction was stopped by adding 200 mM Tris buffer (pH 9.0) to create a pH-shift. The consumption of NADH was monitored by measuring the change in absorbance at […]. By comparing sample readings to those of negative (absence of compound) and positive (absence of enzyme) controls, the percent inhibition of enzymatic activity of the compounds was determined. A best-fit curve is fitted by a minimum of squares method. From this an IC50-value (expressed in μg/ml), resulting in 50% inhibition of enzymatic activity, was obtained.
# [2] = system: Staphylococcus aureus ATCC 29213; experiment: Antibacterial susceptibility testing: IC90 determination (STA); type: cell-based; settings: ATCC29213, S. aureus ATCC 29213, 90% inhibitory concentration for bacterial growth, read-out: STA (361.159) IC90
# Method: (§1) The following bacteria were used: Staphylococcus aureus ATCC 29213, methicillin-resistant Staphylococcus aureus (MRSA) ATCC 700788 and Escherichia coli ATCC 35218. The bacteria used in this study were grown overnight in flasks containing 100 ml Mueller-Hinton broth (Difco cat. nr. 0757-17) in sterile de-ionized water, with shaking, at 37° C. Stocks were store at −70° C. until use.
# (§2) Bacteria were incubated on a tryptic soy agar plate containing 5% sheep blood (Becton Dickinson cat. nr. 254053) for 18-24 hours at 35° C. in aerobic conditions (first passage). For the second passage, fresh Mueller-Hinton broth is inoculated with 5-10 colonies and grown overnight at 35° C. until turbidity (reaching log-phase) in aerobic conditions is reached. The bacterial suspension is then adjusted to 0.5 McFarland density and further diluted 1:100 in Mueller Hinton broth medium. This is used as inoculum.
# (§3) MIC assays were performed by the broth microdilution method in a 96-well format (flat-bottom microtitre plates) with a final volume of 0.1 ml Mueller Hinton broth containing two-fold serial dilutions of compounds and inoculated with 5×10^5 CFU/ml of bacteria (standard inoculum size according to CLSI guidelines). Inhibitors are typically varied over the range of 63 to 0.49 μM. The final DMSO concentration in the assay was 1.25% (maximum tolerable DMSO concentration=6%). In the assays where the effect of human serum on the activity of the compounds against S. aureus was tested, human serum was added at a final concentration of 10%. The plates were incubated at 35° C. for 16-20 hours. At the end of incubation the bacterial growth was quantified fluorometrically. For this, resazurin was added to all wells and the plates were re-incubated. The incubation time is dependent on the type of bacteria. A change in color from blue to pink indicated the growth of bacteria. The fluorescence was read in computer-controlled fluorometer (Fluoroskan Ascent FL, Labsystems) at an excitation wavelength 540 nm and an emission wavelength of 590 nm. The % growth inhibition achieved by the compounds was calculated according to standard methods. The IC90 (expressed in μg/ml) was defined as the 90% inhibitory concentration for bacterial growth. A panel of reference compounds were simultaneously tested for QC approval.
# S. aureus = experiment: Antibacterial susceptibility testing: IC90 determination with 10% human serum (STA + 10% HS); type: cell-based; settings: Staphylococcus aureus; S. aureus with human serum at final concentration of 10%; read-out: STA + 10% HS (361.169) IC90
# Method: as §1, §2, §3
# The results are depicted in the table D2 below (STA+10% HS).
# [3] = Cytotoxicity MTT assay (TOX HELAM); type: cell-based; settings: human, HelaM cells, read-out: TOX HELAM (222.125) CC50
# Method: Cytotoxicity of the compounds was evaluated using the MTT assay. Human HelaM cells grown in 96-well plates were exposed to serial dilutions of the tested compounds (final volume of 0.2 ml) and incubated for 72 hours at 37° C. and 5% CO2. Inhibitors are typically varied over the range of 25 to 0.8 μM. The final DMSO concentration in the assay is 0.5%. MTT (3-(4,5-Dimethylthiazol-2-yl)-2,5-diphenyltetrazolium bromide, a tetrazole) was added and reduced to purple formazan only in living cells. Solubilization of the formazan crystals was achieved by adding 100 μl 2-propanol. Cell viability was determined by measuring the absorbance of the reduced formazan, giving a purple color, at 540 nm and 690 nm. The absorbance measured at 690 nm was automatically subtracted from the absorbance at 540 nm, to eliminate the effects of non-specific absorption. The percent cytotoxicity achieved by the compounds was calculated according to standard methods. Cytotoxicity is reported as CC50, the concentration that causes a 50% reduction in cell viability.
# The results are depicted in the table D2 below (TOX HELAM).
# [4] = In vivo pharmacokinetic and oral bioavailability; settings: male Swiss mice; for half-life: read-out: Half life (t1/2) (converted)
# Method: The in vivo pharmacokinetics and oral bioavailability of the compound of the examples was/is investigated in male Swiss mice (fed) following single intravenous (i.v.) bolus and oral (p.o.) administration. For the i.v. and p.o. solution formulations, the compound was/is dissolved in a 20% HP-β-CD solution. The pH of the formulations was/is around pH 4. All i.v. formulations were isotonic.
# [5] = mouse, plasma, iv, i.v. 2.5 mg/kg
# [6] = mouse, plasma, po, p.o. 10 mg/kg
SMILES,IC50 [1],IC90 [2],IC90 (S. aureus),CC50 at 72 h [3],other results
COc1ccc(F)cc1C1=CCN(C(=O)/C=C/c2cnc3c(c2)CCC(=O)N3)CCC1 [Co. No. 13],1380 nM,1.43 µg/mL,3.05 µg/mL,> 10.6 µg/mL,
O=C1CCc2cc(/C=C/C(=O)N3CC=C(c4cccc(Cl)c4)CCC3)cnc2N1 [Co. No. 12],1250 nM,0.71 µg/mL,4.37 µg/mL,8.23 µg/mL,
Cc1ccc(C)c(C2=CCN(C(=O)/C=C/c3cnc4c(c3)CCC(=O)N4)CCC2)c1 [Co. No. 16],946 nM,1.49 µg/mL,3.01 µg/mL,9.09 µg/mL,
O=C1CCc2cc(/C=C/C(=O)N3CCCC(c4ccccc4)CC3)cnc2N1 (stereo not drawn) [Co. No. 4],666 nM,3.42 µg/mL,3.54 µg/mL,> 9.43 µg/mL,
Cc1ccc(F)cc1C1=CCN(C(=O)/C=C/c2cnc3c(c2)CCC(=O)N3)CCC1 [Co. No. 14],863 nM,1.54 µg/mL,3.74 µg/mL,9.73 µg/mL,"Vdz ([4]; i.v. 2.5 mg/kg): 1.0 L/kg; AUC(0-inf) [4, 5]: 6700 ng·h/mL; C0 ([4]; mouse, plasma, iv, i.v. 2.5 mg/kg, 20% HP-β-CD solution): 4550 ng/mL; half-life [4, 5]: 2 h; clearance ([4]; mouse, plasma, iv, i.v. 2.5 mg/kg, read-out: Plasma clearance Cl (converted)): 6 mL/min/kg; bioavailability ([4]; mouse, plasma, po, p.o. 10 mg/kg vs i.v. 2.5 mg/kg): 90%; AUC(0-inf) [4, 6]: 23800 ng·h/mL; Tmax [4, 6]: 1 h; Cmax ([4]; mouse, plasma, po, p.o. 10 mg/kg, 20% HP-β-CD solution): 3930 ng/mL; half-life [4, 6]: 2.8 h"
COc1ccccc1C1=CCN(C(=O)/C=C/c2cnc3c(c2)CCC(=O)N3)CCC1 [Co. No. 9],967 nM,0.99 µg/mL,1.48 µg/mL,> 10.1 µg/mL,
O=C1CCc2cc(/C=C/C(=O)N3CCCC(Cc4ccccc4)CC3)cnc2N1 (stereo not drawn) [Co. No. 3],976 nM,3.94 µg/mL,11.2 µg/mL,> 9.78 µg/mL,
Cc1ccccc1C1=CCN(C(=O)/C=C/c2cnc3c(c2)CCC(=O)N3)CCC1 [Co. No. 7],1140 nM,1.47 µg/mL,2.97 µg/mL,> 9.73 µg/mL,
O=C1CCc2cc(/C=C/C(=O)N3CC=C(Cc4ccccc4)CCC3)cnc2N1 [Co. No. 5],,4.66 µg/mL,10.9 µg/mL,> 9.73 µg/mL,
COc1cccc(C2=CCN(C(=O)/C=C/c3cnc4c(c3)CCC(=O)N4)CCC2)c1 [Co. No. 6],,3.21 µg/mL,6.32 µg/mL,> 10.1 µg/mL,
Cc1ccccc1C1=CCCN(C(=O)/C=C/c2cnc3c(c2)CCC(=O)N3)CC1 [Co. No. 8],852 nM,0.69 µg/mL,0.84 µg/mL,9.3 µg/mL,
Cc1ccc(F)cc1C1=CCCN(C(=O)/C=C/c2cnc3c(c2)CCC(=O)N3)CC1 [Co. No. 15],789 nM,0.39 µg/mL,1.02 µg/mL,8.57 µg/mL,

# The next lines start with results.
IC50 [1],IC90 [2],IC90 (S. aureus),SMILES,CC50 at 72 h [3],other results
4570 nM,,,O=C1CCc2cc(/C=C/C(=O)N3CCCC(n4cccn4)CC3)cnc2N1 (stereo not drawn) [compound 49],,
2400 nM,0.78 µg/mL,1.66 µg/mL,COc1cccc(C2=CCCN(C(=O)/C=C/c3cnc4c(c3)CCC(=O)N4)CC2)c1 [Co. No. 29],> 10.6 µg/mL,
1610 nM,0.21 µg/mL,0.26 µg/mL,COc1cccc(F)c1C1=CCCN(C(=O)/C=C/c2cnc3c(c2)CCC(=O)N3)CC1 [Co. No. 31],> 10.6 µg/mL,
1660 nM,1.46 µg/mL,2.86 µg/mL,COc1ccc(C2=CCCN(C(=O)/C=C/c3cnc4c(c3)CCC(=O)N4)CC2)cc1 [Co. No. 26],> 10.1 µg/mL,
1420 nM,1.52 µg/mL,5.08 µg/mL,O=C1CCc2cc(/C=C/C(=O)N3CC=C(c4ccc(Cl)cc4)CCC3)cnc2N1 [Co. No. 18],6.85 µg/mL,
932 nM,< 0.2 µg/mL,0.36 µg/mL,O=C1CCc2cc(/C=C/C(=O)N3CCC=C(c4ccccc4Cl)CC3)cnc2N1 [Co. No. 21],9.24 µg/mL,
1070 nM,0.18 µg/mL,0.35 µg/mL,O=C1CCc2cc(/C=C/C(=O)N3CCC=C(c4ccccc4F)CC3)cnc2N1 [Co. No. 23],> 9.83 µg/mL,
1910 nM,1.52 µg/mL,6.17 µg/mL,O=C1CCc2cc(/C=C/C(=O)N3CCC=C(c4ccc(Cl)cc4)CC3)cnc2N1 [Co. No. 24],7.25 µg/mL,
964 nM,,,O=C1CCc2cc(/C=C/C(=O)N3CC=C(c4ccccc4)CCC3)cnc2N1 [compound 1],,
664 nM,0.59 µg/mL,1.03 µg/mL,O=C1CCc2cc(/C=C/C(=O)N3CC=C(c4ccccc4F)CCC3)cnc2N1 [Co. No. 22],12.5 µg/mL,
2130 nM,3.06 µg/mL,5.83 µg/mL,COc1ccc(C2=CCN(C(=O)/C=C/c3cnc4c(c3)CCC(=O)N4)CCC2)cc1 [Co. No. 25],> 10.1 µg/mL,
~1670 nM,2.4 µg/mL,7.42 µg/mL,CC1(c2ccccc2)CCCN(C(=O)/C=C/c2cnc3c(c2)CCC(=O)N3)CC1 (stereo not drawn) [Co. No. 28],> 9.78 µg/mL,
785 nM,0.63 µg/mL,1.15 µg/mL,O=C1CCc2cc(/C=C/C(=O)N3CC=C(c4ccccc4Cl)CCC3)cnc2N1 [Co. No. 20],8.52 µg/mL,
2180 nM,,,O=C1CCc2cc(/C=C/C(=O)N3CCCC(n4ccnn4)CC3)cnc2N1 (stereo not drawn) [compound 50],,
946 nM,0.33 µg/mL,0.72 µg/mL,Cc1ccc(C)c(C2=CCCN(C(=O)/C=C/c3cnc4c(c3)CCC(=O)N4)CC2)c1 [Co. No. 17],4.11 µg/mL,
1530 nM,21.4 µg/mL,20.2 µg/mL,O=C1CCc2cc(/C=C/C(=O)N3CCc4ccccc4CC3)cnc2N1 [Co. No. 32],> 8.73 µg/mL,
